# Measurements from US10251395B2, “Substituted furano-/thienocycloalkylamino-2-pyrimidine derivatives and use thereof for controlling undesired plant growth” (Bayer CropScience Aktiengesellschaft, priority 2015, dated 2019).
# How the values were obtained:
# Assay type in all cases: in vivo
# Veronica persica [1] = test: Post-emergence herbicidal effect; details: assessed visually after about 3 weeks vs untreated controls
# Procedure, shortened: (§1)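 Ratings are visual percentages taken around 3 weeks after treatment, compared with untreated plants. Treatment consisted of an aqueous spray of WP or EC formulations, with 0.2% wetting agent, onto one-leaf-stage weeds raised from seed in sandy loam.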
# Setaria viridis [2] = test: Post-emergence herbicidal effect; details: assessed visually after about 3 weeks vs untreated controls
# Procedure, shortened: as §1
# Echinochloa crus-galli [3] = test: Post-emergence herbicidal effect; details: assessed visually after about 3 weeks vs untreated controls
# Procedure, shortened: as §1
# Viola tricolor [4] = test: Post-emergence herbicidal effect; details: assessed visually after about 3 weeks vs untreated controls
# Procedure, shortened: as §1
# Amaranthus retroflexus [5] = test: Post-emergence herbicidal effect; details: assessed visually after about 3 weeks vs untreated controls
# Procedure, shortened: as §1
# Matricaria inodora [6] = test: Post-emergence herbicidal effect; details: assessed visually after about 3 weeks vs untreated controls
# Procedure, shortened: as §1
# Stellaria media [7] = test: Post-emergence herbicidal effect; details: assessed visually after about 3 weeks vs untreated controls
# Procedure, shortened: as §1
# Abutilon theophrasti [8] = test: Pre-emergence herbicidal effect; details: scored visually after 3 weeks
# Procedure, shortened: (§2)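 After seeds are covered with sandy loam soil, the formulated compound is sprayed onto the soil surface as an aqueous suspension or emulsion containing 0.2% wetting agent. Three weeks later in the greenhouse, damage is rated by eye from 0% (like controls) to 100% (dead).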
# Veronica persica [9] = test: Pre-emergence herbicidal effect; details: scored visually after 3 weeks
# Procedure, shortened: as §2
# Setaria viridis [10] = test: Pre-emergence herbicidal effect; details: scored visually after 3 weeks
# Procedure, shortened: as §2
# Echinochloa crus-galli [11] = test: Pre-emergence herbicidal effect; details: scored visually after 3 weeks
# Procedure, shortened: as §2
# Alopecurus myosuroides [12] = test: Pre-emergence herbicidal effect; details: scored visually after 3 weeks
# Procedure, shortened: as §2
# Amaranthus retroflexus [13] = test: Pre-emergence herbicidal effect; details: scored visually after 3 weeks
# Procedure, shortened: as §2
# Avena fatua = test: Pre-emergence herbicidal effect; details: scored visually after 3 weeks
# Procedure, shortened: as §2
# Polygonum convolvulus [14] = test: Pre-emergence herbicidal effect; details: scored visually after 3 weeks
# Procedure, shortened: as §2
# Ipomoea purpurea [15] = test: Pre-emergence herbicidal effect; details: Dosage 320 g/ha, scored visually after 3 weeks
# Procedure, shortened: as §2
# Cyperus esculentus = test: Pre-emergence herbicidal effect; details: scored visually after 3 weeks
# Procedure, shortened: as §2
# Matricaria inodora [16] = test: Pre-emergence herbicidal effect; details: scored visually after 3 weeks
# Procedure, shortened: as §2
# Stellaria media [17] = test: Pre-emergence herbicidal effect; details: scored visually after 3 weeks
# Procedure, shortened: as §2
# Abutilon theophrasti [18] = test: Post-emergence herbicidal effect; details: assessed visually after about 3 weeks vs untreated controls
# Procedure, shortened: as §1
# Lolium multiflorum = test: Post-emergence herbicidal effect; details: 320 g/ha, assessed visually after about 3 weeks vs untreated controls
# Procedure, shortened: as §1
# Alopecurus myosuroides [19] = test: Post-emergence herbicidal effect; details: 320 g/ha, assessed visually after about 3 weeks vs untreated controls
# Procedure, shortened: as §1
# Polygonum convolvulus [20] = test: Post-emergence herbicidal effect; details: assessed visually after about 3 weeks vs untreated controls
# Procedure, shortened: as §1
# Ipomoea purpurea [21] = test: Post-emergence herbicidal effect; details: assessed visually after about 3 weeks vs untreated controls
# Procedure, shortened: as §1
# Viola tricolor [22] = test: Pre-emergence herbicidal effect; details: scored visually after 3 weeks
# Procedure, shortened: as §2
structure (smiles),measurement,setting,value
Cc1cc2c(s1)CCCC2Nc1ncc(C#N)c(N)n1 (racemic) [compound 52],post-emergence efficacy VERPE,Veronica persica [1]; 80 g/ha,90%
same,post-emergence efficacy VERPE,Veronica persica [1]; 320 g/ha,90%
same,post-emergence efficacy SETVI,Setaria viridis [2]; 80 g/ha,60%
same,post-emergence efficacy SETVI,Setaria viridis [2]; 320 g/ha,80%
same,post-emergence efficacy ECHCG,Echinochloa crus-galli [3]; 320 g/ha,100%
same,post-emergence efficacy VIOTR,Viola tricolor [4]; 80 g/ha,90%
same,post-emergence efficacy VIOTR,Viola tricolor [4]; 320 g/ha,90%
same,post-emergence efficacy AMARE,Amaranthus retroflexus [5]; 80 g/ha,100%
same,post-emergence efficacy AMARE,Amaranthus retroflexus [5]; 320 g/ha,100%
same,post-emergence efficacy MATIN,Matricaria inodora [6]; 80 g/ha,60%
same,post-emergence efficacy MATIN,Matricaria inodora [6]; 320 g/ha,60%
same,post-emergence efficacy STEME,Stellaria media [7]; 80 g/ha,100%
same,post-emergence efficacy STEME,Stellaria media [7]; 320 g/ha,100%
same,ABUTH pre-emergence efficacy (herbicidal activity),Abutilon theophrasti [8]; Dosage 80 g/ha,90%
same,ABUTH pre-emergence efficacy (herbicidal activity),Abutilon theophrasti [8]; Dosage 320 g/ha,100%
same,VERPE pre-emergence efficacy (herbicidal activity),Veronica persica [9]; Dosage 80 g/ha,100%
same,VERPE pre-emergence efficacy (herbicidal activity),Veronica persica [9]; Dosage 320 g/ha,100%
same,SETVI pre-emergence efficacy (herbicidal activity),Setaria viridis [10]; Dosage 80 g/ha,80%
same,SETVI pre-emergence efficacy (herbicidal activity),Setaria viridis [10]; Dosage 320 g/ha,100%
same,ECHCG pre-emergence efficacy (herbicidal activity),Echinochloa crus-galli [11]; Dosage 80 g/ha,80%
same,ECHCG pre-emergence efficacy (herbicidal activity),Echinochloa crus-galli [11]; Dosage 320 g/ha,90%
same,ALOMY pre-emergence efficacy (herbicidal activity),Alopecurus myosuroides [12]; Dosage 80 g/ha,70%
same,ALOMY pre-emergence efficacy (herbicidal activity),Alopecurus myosuroides [12]; Dosage 320 g/ha,80%
same,AMARE pre-emergence efficacy (herbicidal activity),Amaranthus retroflexus [13]; Dosage 80 g/ha,100%
same,AMARE pre-emergence efficacy (herbicidal activity),Amaranthus retroflexus [13]; Dosage 320 g/ha,100%
same,AVEFA pre-emergence efficacy (herbicidal activity),Avena fatua; Dosage 80 g/ha,90%
same,AVEFA pre-emergence efficacy (herbicidal activity),Avena fatua; Dosage 320 g/ha,90%
same,POLCO pre-emergence efficacy (herbicidal activity),Polygonum convolvulus [14]; Dosage 80 g/ha,100%
same,POLCO pre-emergence efficacy (herbicidal activity),Polygonum convolvulus [14]; Dosage 320 g/ha,100%
same,PHBPU pre-emergence efficacy (herbicidal activity),Ipomoea purpurea [15],100%
same,CYPES pre-emergence efficacy (herbicidal activity),Cyperus esculentus; Dosage 80 g/ha,100%
same,CYPES pre-emergence efficacy (herbicidal activity),Cyperus esculentus; Dosage 320 g/ha,100%
same,MATIN pre-emergence efficacy (herbicidal activity),Matricaria inodora [16]; Dosage 80 g/ha,100%
same,MATIN pre-emergence efficacy (herbicidal activity),Matricaria inodora [16]; Dosage 320 g/ha,100%
same,STEME pre-emergence efficacy (herbicidal activity),Stellaria media [17]; Dosage 80 g/ha,100%
same,STEME pre-emergence efficacy (herbicidal activity),Stellaria media [17]; Dosage 320 g/ha,100%
Cc1cc2c(s1)CCCC2Nc1ncc(C(F)(F)F)c(N)n1 (racemic) [compound 61],post-emergence efficacy ABUTH,Abutilon theophrasti [18]; 80 g/ha,90%
same,post-emergence efficacy ABUTH,Abutilon theophrasti [18]; 320 g/ha,90%
same,post-emergence efficacy LOLMU,Lolium multiflorum,90%
same,post-emergence efficacy VERPE,Veronica persica [1]; 80 g/ha,100%
same,post-emergence efficacy VERPE,Veronica persica [1]; 320 g/ha,100%
same,post-emergence efficacy SETVI,Setaria viridis [2]; 80 g/ha,80%
same,post-emergence efficacy SETVI,Setaria viridis [2]; 320 g/ha,90%
same,post-emergence efficacy ECHCG,Echinochloa crus-galli [3]; 80 g/ha,100%
same,post-emergence efficacy ECHCG,Echinochloa crus-galli [3]; 320 g/ha,100%
same,post-emergence efficacy ALOMY,Alopecurus myosuroides [19],100%
same,post-emergence efficacy VIOTR,Viola tricolor [4]; 80 g/ha,90%
same,post-emergence efficacy VIOTR,Viola tricolor [4]; 320 g/ha,90%
same,post-emergence efficacy AMARE,Amaranthus retroflexus [5]; 80 g/ha,90%
same,post-emergence efficacy AMARE,Amaranthus retroflexus [5]; 320 g/ha,90%
same,post-emergence efficacy POLCO,Polygonum convolvulus [20]; 80 g/ha,80%
same,post-emergence efficacy POLCO,Polygonum convolvulus [20]; 320 g/ha,90%
same,post-emergence efficacy PHBPU,Ipomoea purpurea [21]; 80 g/ha,90%
same,post-emergence efficacy PHBPU,Ipomoea purpurea [21]; 320 g/ha,100%
same,post-emergence efficacy MATIN,Matricaria inodora [6]; 320 g/ha,100%
same,post-emergence efficacy STEME,Stellaria media [7]; 80 g/ha,100%
same,post-emergence efficacy STEME,Stellaria media [7]; 320 g/ha,100%
same,ABUTH pre-emergence efficacy (herbicidal activity),Abutilon theophrasti [8]; Dosage 80 g/ha,30%
same,ABUTH pre-emergence efficacy (herbicidal activity),Abutilon theophrasti [8]; Dosage 320 g/ha,100%
same,VERPE pre-emergence efficacy (herbicidal activity),Veronica persica [9]; Dosage 80 g/ha,100%
same,VERPE pre-emergence efficacy (herbicidal activity),Veronica persica [9]; Dosage 320 g/ha,100%
same,SETVI pre-emergence efficacy (herbicidal activity),Setaria viridis [10]; Dosage 80 g/ha,100%
same,SETVI pre-emergence efficacy (herbicidal activity),Setaria viridis [10]; Dosage 320 g/ha,100%
same,ECHCG pre-emergence efficacy (herbicidal activity),Echinochloa crus-galli [11]; Dosage 80 g/ha,90%
same,ECHCG pre-emergence efficacy (herbicidal activity),Echinochloa crus-galli [11]; Dosage 320 g/ha,90%
same,ALOMY pre-emergence efficacy (herbicidal activity),Alopecurus myosuroides [12]; Dosage 80 g/ha,80%
same,ALOMY pre-emergence efficacy (herbicidal activity),Alopecurus myosuroides [12]; Dosage 320 g/ha,100%
same,VIOTR pre-emergence efficacy (herbicidal activity),Viola tricolor [22]; Dosage 80 g/ha,80%
same,VIOTR pre-emergence efficacy (herbicidal activity),Viola tricolor [22]; Dosage 320 g/ha,100%
same,AMARE pre-emergence efficacy (herbicidal activity),Amaranthus retroflexus [13]; Dosage 80 g/ha,100%
same,AMARE pre-emergence efficacy (herbicidal activity),Amaranthus retroflexus [13]; Dosage 320 g/ha,100%
same,AVEFA pre-emergence efficacy (herbicidal activity),Avena fatua; Dosage 320 g/ha,80%
same,POLCO pre-emergence efficacy (herbicidal activity),Polygonum convolvulus [14]; Dosage 80 g/ha,90%
same,POLCO pre-emergence efficacy (herbicidal activity),Polygonum convolvulus [14]; Dosage 320 g/ha,90%
same,PHBPU pre-emergence efficacy (herbicidal activity),Ipomoea purpurea [15],90%
same,MATIN pre-emergence efficacy (herbicidal activity),Matricaria inodora [16]; Dosage 80 g/ha,100%
same,MATIN pre-emergence efficacy (herbicidal activity),Matricaria inodora [16]; Dosage 320 g/ha,100%
same,STEME pre-emergence efficacy (herbicidal activity),Stellaria media [17]; Dosage 80 g/ha,90%
same,STEME pre-emergence efficacy (herbicidal activity),Stellaria media [17]; Dosage 320 g/ha,100%
